Experimental data published in patent US20250241895A1 (GH RESEARCH IRELAND LIMITED, priority 2022, published 2025).

What was measured:
[1] = tested on: patients with treatment-resistant major depressive disorder (TRD); assay: Phase 1/2 clinical trial of inhaled 5-MeO-DMT in TRD; conditions: for patients with at least one ADR: n=4
Description: This trial was designed in two parts. Part A was an open-label, single-arm, single-dose Phase 1 trial with two dose levels (12 mg (n=4) and 18 mg (n=4)). […] The primary endpoint of Part B was to assess the effects on the severity of depression, as assessed by the proportion of patients in remission on day seven after dosing, defined as a MADRS total score of less than or equal to 10.

[2] = Pharmacokinetics of 5-MeO-DMT and bufotenine after inhalation; type: in vivo, human
Description: Blood samples were obtained at 1; 2; 4; 7; 10; 15; 20; 30; 45 min and 1; 1.5; 2; 3; 4 hours after administration.
PK parameters were generated by algebraic analysis of the concentration versus time plots for each individual. The analysis was carried out using the software Phoenix WinNonlin 6.3.

[3] = 12 mg group n=4, sum of patient scores, 2 hours after dose
[4] = 12 mg group n=4, sum of patient scores, 3 hours after dose
[5] = 12 mg group n=4, sum of patient scores, baseline
[6] = 12 mg group n=4, sum of patient scores, day 1
[7] = 12 mg group n=4, sum of patient scores, day 7
[8] = IDR group n=8, sum of patient scores, 2 hours after last dose
[9] = IDR group n=8, sum of patient scores, 3 hours after last dose
[10] = IDR group n=8, sum of patient scores, baseline
[11] = IDR group n=8, sum of patient scores, day 1
[12] = IDR group n=8, sum of patient scores, day 7

COc1ccc2[nH]cc(CCN(C)C)c2c1 [5-MeO-DMT]
BPRS Anxiety percentage improvement ([1]; 12 mg group n=4, day 7): 76.00%
MADRS Pessimistic Thoughts percentage improvement ([1]; 12 mg group n=4, day 7): 50.00%
MADRS Reduced Sleep percentage improvement ([1]; 12 mg group n=4, day 7): 50.00%
MADRS Concentration Difficulties improvement [1, 3]: 9
MADRS Inability to Feel improvement [1, 3]: 7
MADRS Inner Tension improvement [1, 3]: 11
MADRS Lassitude improvement [1, 3]: 6
MADRS Lassitude score [1, 3]: 10
MADRS Pessimistic Thoughts improvement [1, 3]: 8
MADRS Suicidal Thoughts improvement [1, 3]: 5
MADRS Suicidal Thoughts score [1, 3]: 3
BPRS Anxiety improvement [1, 4]: 14
BPRS Blunted Affect improvement [1, 4]: 3
BPRS Emotional Withdrawal improvement [1, 4]: 2
BPRS Guilt Feelings improvement [1, 4]: 9
BPRS Tension improvement [1, 4]: 5
BPRS Anxiety score [1, 5]: 25
BPRS Blunted Affect score [1, 5]: 11
BPRS Emotional Withdrawal score [1, 5]: 13
BPRS Guilt Feelings score [1, 5]: 18
BPRS Tension score [1, 5]: 14
MADRS Concentration Difficulties score [1, 5]: 16
MADRS Inability to Feel score [1, 5]: 16
MADRS Inner Tension score [1, 5]: 13
MADRS Lassitude score [1, 5]: 16
MADRS Pessimistic Thoughts score [1, 5]: 16
MADRS Reduced Sleep score [1, 5]: 12
MADRS Suicidal Thoughts score [1, 5]: 8
BPRS Anxiety improvement [1, 6]: 19
BPRS Blunted Affect improvement [1, 6]: 5
BPRS Emotional Withdrawal improvement [1, 6]: 5
BPRS Emotional Withdrawal score [1, 6]: 8
BPRS Guilt Feelings improvement [1, 6]: 13
BPRS Tension improvement [1, 6]: 8
MADRS Concentration Difficulties improvement [1, 6]: 14
MADRS Inability to Feel improvement [1, 6]: 15
MADRS Inner Tension improvement [1, 6]: 10
MADRS Lassitude improvement [1, 6]: 16
MADRS Lassitude score [1, 6]: 0
MADRS Pessimistic Thoughts improvement [1, 6]: 9
MADRS Pessimistic Thoughts score [1, 6]: 7
MADRS Reduced Sleep improvement [1, 6]: 2
MADRS Suicidal Thoughts improvement [1, 6]: 3
BPRS Anxiety improvement [1, 7]: 19
BPRS Blunted Affect improvement [1, 7]: 6
BPRS Emotional Withdrawal improvement [1, 7]: 7
BPRS Guilt Feelings improvement [1, 7]: 13
BPRS Guilt Feelings score [1, 7]: 5
BPRS Tension improvement [1, 7]: 8
MADRS Concentration Difficulties improvement [1, 7]: 13
MADRS Inability to Feel improvement [1, 7]: 15
MADRS Inability to Feel score [1, 7]: 1
MADRS Inner Tension improvement [1, 7]: 8
MADRS Lassitude improvement [1, 7]: 13
MADRS Lassitude score [1, 7]: 3
MADRS Pessimistic Thoughts improvement [1, 7]: 8
MADRS Pessimistic Thoughts score [1, 7]: 8
MADRS Reduced Sleep improvement [1, 7]: 6
MADRS Suicidal Thoughts improvement [1, 7]: 1
MADRS Reduced Sleep percentage improvement ([1]; IDR group n=8, day 1): 52.00%
MADRS Reduced Sleep percentage improvement ([1]; IDR group n=8, day 7): 64.00%
MADRS Concentration Difficulties improvement [1, 8]: 19
MADRS Inability to Feel improvement [1, 8]: 24
MADRS Inner Tension improvement [1, 8]: 15
MADRS Lassitude improvement [1, 8]: 17
MADRS Pessimistic Thoughts improvement [1, 8]: 21
MADRS Suicidal Thoughts improvement [1, 8]: 8
BPRS Anxiety improvement [1, 9]: 18
BPRS Blunted Affect improvement [1, 9]: 4
BPRS Emotional Withdrawal improvement [1, 9]: 5
BPRS Guilt Feelings improvement [1, 9]: 20
BPRS Tension improvement [1, 9]: 5
BPRS Anxiety score [1, 10]: 37
BPRS Blunted Affect score [1, 10]: 15
BPRS Emotional Withdrawal score [1, 10]: 13
BPRS Guilt Feelings score [1, 10]: 34
BPRS Tension score [1, 10]: 16
MADRS Concentration Difficulties score [1, 10]: 30
MADRS Inability to Feel score [1, 10]: 36
MADRS Inner Tension score [1, 10]: 26
MADRS Lassitude score [1, 10]: 27
MADRS Pessimistic Thoughts score [1, 10]: 28
MADRS Reduced Sleep score [1, 10]: 25
MADRS Suicidal Thoughts score [1, 10]: 11
BPRS Anxiety improvement [1, 11]: 21
BPRS Blunted Affect improvement [1, 11]: 7
BPRS Emotional Withdrawal improvement [1, 11]: 5
BPRS Guilt Feelings improvement [1, 11]: 23
BPRS Tension improvement [1, 11]: 5
MADRS Concentration Difficulties improvement [1, 11]: 29
MADRS Inability to Feel improvement [1, 11]: 34
MADRS Inner Tension improvement [1, 11]: 20
MADRS Lassitude improvement [1, 11]: 22
MADRS Pessimistic Thoughts improvement [1, 11]: 24
MADRS Reduced Sleep improvement [1, 11]: 13
MADRS Suicidal Thoughts improvement [1, 11]: 10
BPRS Anxiety improvement [1, 12]: 20
BPRS Blunted Affect improvement [1, 12]: 7
BPRS Emotional Withdrawal improvement [1, 12]: 5
BPRS Guilt Feelings improvement [1, 12]: 24
BPRS Tension improvement [1, 12]: 6
MADRS Concentration Difficulties improvement [1, 12]: 21
MADRS Inability to Feel improvement [1, 12]: 30
MADRS Inner Tension improvement [1, 12]: 14
MADRS Lassitude improvement [1, 12]: 24
MADRS Pessimistic Thoughts improvement [1, 12]: 25
MADRS Reduced Sleep improvement [1, 12]: 16
MADRS Suicidal Thoughts improvement [1, 12]: 8
mean MADRS change from baseline ([1]; Part A, 12 mg group, day seven): −21.0
mean MADRS change from baseline, percent ([1]; Part A, 12 mg group, day seven): −65%
patients with at least one ADR ([1]; Part A, 12 mg single dose): 3 of 4
further patients with MADRS clinical response ([1]; Part A, 18 mg group n=4, day seven after dosing): 25%
mean MADRS change from baseline, percent ([1]; Part A, 18 mg group, day seven): −41%
patients with at least one ADR ([1]; Part A, 18 mg single dose): 3 of 4
patients with MADRS remission (total score less than or equal to 10) ([1]; Part B, IDR n=8, day seven): 87.5%
detectability in the plasma ([2]; 3 hours after inhalation, 6 mg, 12 mg, 18 mg): no longer detectable
absorption and distribution ([2]; inhaled): rapid absorption and distribution
